Among the data in ChEMBL document CHEMBL4602605, “Fluoroquinolones structural and medicinal developments (2013-2018): Where are we now?” (Bioorg Med Chem, 2019) are Activity, MIC and Time values, retold here.

≈ marks a conversion by molar mass, not a printed value.

Assay type in all cases: functional
In one assay the test system is Mus musculus. The assay is described as follows: Analgesic activity in Swiss albino mouse assessed as acetic acid-induced writhing number at 50 mg/kg pretreated for 30 mins followed by acetic acid challenge and measured after 5 to 15 mins (reference value: 30.8 +/- 0.37).
Assay [1] deals with Escherichia coli. The experiment in a line: Antibacterial activity against Escherichia coli NCDC 134 by single disk method.
In a further assay the test system is Bacillus subtilis. The experiment in a line: Antibacterial activity against Bacillus subtilis NCDC 71 by single disk method.
A further assay deals with Metaphire posthuma. The experiment in a line: Anthelmintic activity against Pheretima posthuma assessed as mean paralysing time at 200 mg/ml.
In assay [2] the test system is Pseudomonas aeruginosa. The experiment in a line: Antibacterial activity against Pseudomonas aeruginosa NCDC 105 by single disk method.
Assay [3] relates to Staphylococcus aureus. The assay is described as follows: Antibacterial activity against Staphylococcus aureus NCDC 110 by single disk method.
The test system of the next assay is Paenibacillus polymyxa. The experiment in a line: Antibacterial activity against Paenibacillus polymyxa NCDC 64 by single disk method.
Assay [4] relates to Staphylococcus aureus. The experiment in a line: Antimicrobial activity against methicillin-susceptible Staphylococcus aureus clinical isolate incubated for 16 hrs by CLSI based agar dilution method. For orientation: In agar dilution the substance is mixed into plates at graded concentrations.
Assay [5] relates to Escherichia coli. The assay is described as follows: Antimicrobial activity against Escherichia coli ATCC 700603 incubated for 16 hrs by CLSI-based agar dilution method. Conditions: ATCC 700603, 16 h.
Assay [6] concerns Klebsiella pneumoniae. The assay is described as follows: Antimicrobial activity against Klebsiella pneumoniae ATCC 29522 incubated for 16 hrs by CLSI-based agar dilution method. Particulars: ATCC 29522, 16 h.
Assay [7] concerns Staphylococcus epidermidis. The experiment in a line: Antimicrobial activity against methicillin-susceptible Staphylococcus epidermidis clinical isolate incubated for 16 hrs by CLSI based agar dilution method.
In assay [8] the test system is Staphylococcus epidermidis. The experiment in a line: Antimicrobial activity against methicillin-resistant Staphylococcus epidermidis clinical isolate incubated for 16 hrs by CLSI based agar dilution method.
Assay [9] deals with Acinetobacter calcoaceticus. The experiment in a line: Antimicrobial activity against Acinetobacter calcoaceticus ATCC 19606.
Assay [10] concerns Escherichia coli. The assay is described as follows: Antimicrobial activity against ESBL non-producing Escherichia coli ATCC 25922.
Another assay concerns Enterobacter cloacae. The assay is described as follows: Antimicrobial activity against Enterobacter cloacae ATCC 43560.
Assay [11] has as its system Pseudomonas aeruginosa. The experiment in a line: Antimicrobial activity against Pseudomonas aeruginosa ATCC 27853.
Assay [12] has as its system Klebsiella pneumoniae. The experiment in a line: Antimicrobial activity against ESBL-producing Klebsiella pneumoniae ATCC 700603.

Regarding `O=C(CN1CCN(c2cc3c(cc2F)c(=O)c(C(=O)O)cn3C2CC2)CC1)Nc1nc2ccc([N+](=O)[O-])cc2s1`, the Activity with Mus musculus worked out at 14.2. The MIC against Escherichia coli [1] came to 35 µg/mL (≈ 61.8 µM); with Bacillus subtilis, 25 µg/mL (≈ 44.1 µM); in the assay on Pseudomonas aeruginosa [2] it was 45 µg/mL (≈ 79.4 µM); with Staphylococcus aureus [3], 50 µg/mL (≈ 88.3 µM); against Paenibacillus polymyxa, 55 µg/mL (≈ 97.1 µM). The Time in the assay with Metaphire posthuma is 22.8 min.
Take `O=C(CN1CCN(c2cc3c(cc2F)c(=O)c(C(=O)O)cn3C2CC2)CC1)Nc1nc2ccc(Cl)cc2s1`: the Activity in the assay on Mus musculus stood at 13.8. Besides, the MIC in the assay on Escherichia coli [1] was found to be 8 µg/mL (≈ 14.4 µM); in the assay with Bacillus subtilis, 4 µg/mL (≈ 7.19 µM); against Pseudomonas aeruginosa [2], 15 µg/mL (≈ 27 µM); in the assay with Staphylococcus aureus [3] it was 3 µg/mL (≈ 5.4 µM); with Paenibacillus polymyxa, 15 µg/mL (≈ 27 µM). Moreover, the Time with Metaphire posthuma is given as 26 min.
On to `O=C(CN1CCN(c2cc3c(cc2F)c(=O)c(C(=O)O)cn3C2CC2)CC1)Nc1nc2c(Cl)ccc(Cl)c2s1`, for which the Activity in the assay with Mus musculus is 15.6. For the same compound, the MIC against Escherichia coli [1] amounted to 6 µg/mL (≈ 10.2 µM); in the assay on Bacillus subtilis it was 10 µg/mL (≈ 16.9 µM); against Pseudomonas aeruginosa [2], 65 µg/mL (≈ 110 µM); against Staphylococcus aureus [3], 5 µg/mL (≈ 8.47 µM); against Paenibacillus polymyxa it was 30 µg/mL (≈ 50.8 µM). The Time with Metaphire posthuma was determined as 32.6 min.
With `CCn1cc(C(=O)O)c(=O)c2cc(F)c(N3CCN(CC(O)Cn4cc([N+](=O)[O-])nc4Cl)CC3)c(OC)c21` (stereo unspecified), the MIC in the assay with Staphylococcus aureus [4] is greater than 32 µg/mL; in the assay with Escherichia coli [5], greater than 32 µg/mL; against Klebsiella pneumoniae [6], greater than 32 µg/mL; in [7], 32 µg/mL (≈ 57.9 µM); in assay [8] it was greater than 32 µg/mL.
For `COc1c(N2CCN(CC(=O)Nc3nc4c(Cl)cccc4s3)C(C)C2)c(F)cc2c(=O)c(C(=O)O)cn(C3CC3)c12` (stereo unspecified), the Activity with Mus musculus is recorded as 19.2. For the same compound, the MIC against Escherichia coli [1] was 60 µg/mL (≈ 100 µM); against Bacillus subtilis, 75 µg/mL (≈ 125 µM); in the assay with Pseudomonas aeruginosa [2], 20 µg/mL (≈ 33.3 µM); in the assay on Staphylococcus aureus [3], 4 µg/mL (≈ 6.67 µM); against Paenibacillus polymyxa it was 25 µg/mL (≈ 41.7 µM). Moreover, the Time in the assay on Metaphire posthuma is on record as 24.6 min.
With `COc1c(N2CCN(CC(=O)Nc3nc4c([N+](=O)[O-])cccc4s3)C(C)C2)c(F)cc2c(=O)c(C(=O)O)cn(C3CC3)c12` (stereo unspecified), the Activity in the assay with Mus musculus is on record as 1.63. Also, the MIC in the assay on Escherichia coli [1] was found to be 65 µg/mL (≈ 106 µM); against Bacillus subtilis, 40 µg/mL (≈ 65.5 µM); in the assay on Pseudomonas aeruginosa [2], 75 µg/mL (≈ 123 µM); against Staphylococcus aureus [3], 60 µg/mL (≈ 98.3 µM); against Paenibacillus polymyxa it was 45 µg/mL (≈ 73.7 µM). For the same compound, the Time in the assay with Metaphire posthuma worked out at 1.2 min.
In the case of `Cc1ccc2nc(NC(=O)CN3CCN(c4cc5c(cc4F)c(=O)c(C(=O)O)cn5C4CC4)CC3)sc2c1`, the Activity in the assay with Mus musculus was 16.2. The MIC with Escherichia coli [1] stood at 20 µg/mL (≈ 37.3 µM); in the assay on Bacillus subtilis, 35 µg/mL (≈ 65.3 µM); with Pseudomonas aeruginosa [2] it was 45 µg/mL (≈ 84 µM); against Staphylococcus aureus [3], 40 µg/mL (≈ 74.7 µM); in the assay on Paenibacillus polymyxa it was 110 µg/mL (≈ 205 µM). For the same compound, the Time in the assay on Metaphire posthuma is on record as 23.2 min.
As for `O=C(O)c1cn([C@@H]2C[C@@H]2F)c2cc(N3CCN(Cn4nc(-c5cc6ccccc6cn5)n(Cc5ccccc5)c4=S)CC3)c(F)cc2c1=O`, the MIC is 11.8 µM (≈ 8.02 µg/mL) in assay [9]; no more than 0.04 µM against Escherichia coli [10]; no more than 0.04 µM against Enterobacter cloacae; 1.47 µM (≈ 0.999 µg/mL) in the assay with Pseudomonas aeruginosa [11]; 1.47 µM (≈ 0.999 µg/mL) in the assay on Klebsiella pneumoniae [12].
`O=C(O)c1cn([C@@H]2C[C@@H]2F)c2cc(N3CCN(Cn4nc(-c5ccccn5)n(-c5ccccc5)c4=S)CC3)c(F)cc2c1=O`: the MIC in [9] is 6.5 µM (≈ 4 µg/mL); with Escherichia coli [10], no more than 0.05 µM; against Enterobacter cloacae, no more than 0.05 µM; against Pseudomonas aeruginosa [11] it was 1.63 µM (≈ 1 µg/mL); in the assay with Klebsiella pneumoniae [12] it was 1.63 µM (≈ 1 µg/mL).
With `O=C(O)c1cn([C@@H]2C[C@@H]2F)c2cc(N3CCN(Cn4nc(-c5cccnc5)n(Cc5ccccc5)c4=S)CC3)c(F)cc2c1=O`, the MIC was 6.36 µM (≈ 4 µg/mL) in assay [9]; no more than 0.05 µM in the assay on Escherichia coli [10]; no more than 0.05 µM against Enterobacter cloacae; 1.59 µM (≈ 1 µg/mL) against Pseudomonas aeruginosa [11]; 0.4 µM (≈ 0.252 µg/mL) against Klebsiella pneumoniae [12].
With `COc1c(N2CCN(CC(=O)Nc3nc4c(F)cccc4s3)C(C)C2)c(F)cc2c(=O)c(C(=O)O)cn(C3CC3)c12` (stereo unspecified), the Activity with Mus musculus is listed as 15. Further, the MIC stood at 140 µg/mL (≈ 240 µM) in the assay on Escherichia coli [1]; 70 µg/mL (≈ 120 µM) with Bacillus subtilis; 50 µg/mL (≈ 85.7 µM) with Pseudomonas aeruginosa [2]; 15 µg/mL (≈ 25.7 µM) in the assay with Staphylococcus aureus [3]; 25 µg/mL (≈ 42.8 µM) in the assay on Paenibacillus polymyxa. Besides, the Time with Metaphire posthuma turned out to be 23.6 min.
In the case of `O=C(O)c1cn([C@@H]2C[C@@H]2F)c2cc(N3CCN(Cn4nc(-c5ccccn5)n(Cc5ccccc5)c4=S)CC3)c(F)cc2c1=O`, the MIC is no more than 0.05 µM in [9]; no more than 0.05 µM with Escherichia coli [10]; 0.79 µM (≈ 0.497 µg/mL) in the assay with Enterobacter cloacae; 0.79 µM (≈ 0.497 µg/mL) in the assay with Pseudomonas aeruginosa [11]; 0.79 µM (≈ 0.497 µg/mL) in the assay on Klebsiella pneumoniae [12].
Turning to `CCn1cc(C(=O)O)c(=O)c2cc(F)c(N3CCN(CC(=O)Nc4nc5ccc(C)cc5s4)CC3)cc21`, the Activity with Mus musculus is reported as 17.8. The MIC in the assay with Escherichia coli [1] was determined as 65 µg/mL (≈ 124 µM); against Bacillus subtilis, 30 µg/mL (≈ 57.3 µM); in the assay on Pseudomonas aeruginosa [2] it was 20 µg/mL (≈ 38.2 µM); against Staphylococcus aureus [3], 25 µg/mL (≈ 47.7 µM); in the assay with Paenibacillus polymyxa, 45 µg/mL (≈ 85.9 µM). Further, in the assay with Metaphire posthuma, the Time worked out at 28.4 min.

In general, MIC refers to the lowest concentration found to suppress growth.
